# Measured values published in patent US20120184624A1, “Treatment of Alzheimer's Disease” (priority 2010, published 2012).
# Read-outs that look alike come from different tables or passages of the source.
# Experiments:
# ribosomal protein S6 = assay: Phosphorylation of S6 in rat hepatoma cell line H4IIE; assay type: cell-based; conditions: 2.5 mM, 16 hours
# Protocol: (§1) Cell pellets were homogenized in Magic-Mix (48% UREA, 15 mM Tris-HCL pH 7.5, 8.7% Glycerin, 1% SDS, 0.004% Bromphenolblue, 143 mM Mercaptoethanol), sonicated and boiled for 5 min at 95° C. Proteins were resolved on 8 or 10% SDS gels and blotted onto PVDF-membranes (Roche). Antibodies used in this study were purchased from the following companies: Tau-5 (Biosource), anti-human PHF pSer202 (Thermo scientific), Tau pSer356 (Biosource), Tau pSer262 (Biosource), Tau pSer396 (Sigma), Actin (Sigma), ACC (cell signalling), ACC pSer79 (cell signalling), phospho-S6 ribosomal protein pSer241/244 (cell signalling), p70S6 Kinase (cell signalling), p70S6K pThr421/pSer424 (cell signalling), mTOR (cell signalling), AMPK (cell signallling, AMPK pThr172 (cell singnaling), HRP-anti-rabbit (Amersham), HRP-anti-mouse (Dianova). The resulting bands were quantified using Imagequant5.2. Statistical analyses were performed using SigmaStat software package (v 3.0, SPSS, USA). For timecourse or dose-response studies, data were analyses by one-way ANOVA with post hoc Dunnett's or Bonferonni test to accommodate for multiple comparisons. A Student's t-test was used for two-group comparisons, as appropriate.
# α4-PP2Ac association = target: T1, α4-PP2Ac association (Homo sapiens, UniProt P67775+P78318); assay: Co-immunoprecipitation of PP2Ac and V5-tagged α4 in HeLa cell lysates; assay type: binding; conditions: 2.5 mM metformin added to lysates of α4-V5 expressing HeLa cells
# T1 construct: expressed in transfected cells; host or cells: HeLa
# T1 sequence (P78318 whole entry): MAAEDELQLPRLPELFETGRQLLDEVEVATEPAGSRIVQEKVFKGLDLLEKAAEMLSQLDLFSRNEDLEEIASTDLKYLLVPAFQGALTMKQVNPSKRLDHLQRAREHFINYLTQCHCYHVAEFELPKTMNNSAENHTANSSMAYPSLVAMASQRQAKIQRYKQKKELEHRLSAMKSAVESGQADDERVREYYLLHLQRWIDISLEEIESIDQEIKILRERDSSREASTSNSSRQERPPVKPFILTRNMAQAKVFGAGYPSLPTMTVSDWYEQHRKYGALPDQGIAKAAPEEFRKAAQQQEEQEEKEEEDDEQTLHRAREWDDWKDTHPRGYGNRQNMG
# T1 sequence (P67775 whole entry): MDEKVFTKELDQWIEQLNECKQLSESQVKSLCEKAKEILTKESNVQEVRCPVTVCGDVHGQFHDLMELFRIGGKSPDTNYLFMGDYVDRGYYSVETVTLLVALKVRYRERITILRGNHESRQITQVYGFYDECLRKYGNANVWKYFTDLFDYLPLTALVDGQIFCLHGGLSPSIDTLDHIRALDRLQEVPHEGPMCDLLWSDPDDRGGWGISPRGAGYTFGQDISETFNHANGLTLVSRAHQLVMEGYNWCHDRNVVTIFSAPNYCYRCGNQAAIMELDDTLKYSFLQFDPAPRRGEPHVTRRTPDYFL
# [1] = system: ribosomal protein S6 (S241/244); assay: Phosphorylation of ribosomal protein S6 (mTORC1 signalling) in primary neurons from wild-type mice; assay type: cell-based, mouse
# Protocol: (§2) Primary cortical neurons were isolated from brain of wt or transgenic (Mapt^tm1(EGFP)klt Tg(MAPT)8cPdav/J; Jackson Laboratory) embryos at day 14.5. Cortices were collected in DMEM (Lonza) and cells were dissociated by incubation with Trypsin/EDTA for 6.5 min at 37° C. Cells were then diluted in neurobasal medium (Gibco-BRL) containing B27 supplement (Gibco BRL). Cells were plated at a density of 4.0×10^5 onto 0.2 mg/ml poly-D-lysin (Sigma) and 2 μg/ml Laminin (Sigma) coated 12 well plates. Neurons were incubated at 37° C. with 8% CO2. One hour after seeding a complete change of medium was performed. Later on, each 96 hours half volumes of the medium were replaced by fresh medium. After 7 days in culture neurons were treated.
# (§3) Cells were incubated with the respective substances as follows: Metformin (Sigma) at final concentrations up to 2.5 mM for 1 to >24 hours, okadaic acid (Sigma) at final concentrations from 1 nM to 10 nM for 4 h, Fostricien (Sigma) at final concentration of 1 μM for 4 h and AICAR (cell signalling) at final concentration of 5 mM for 0.5-16 h. For cell treatment without insulin, medium containing B27+insulin supplement was replaced with medium containing B27-supplement without insulin 24 h before treatment. 3 groups of 2 mice were treated with or without 5 mg/l metformin in the drinking water. […]
# ACC = assay: Phosphorylation of the AMPK target ACC (Ser79) in primary cortical neurons; assay type: cell-based, mouse; conditions: 2.5 mM metformin, increasing time intervals
# Protocol: as §2
# as §3, with “treatment.” for “treatment. 3 groups of 2 mice were treated with or without 5 mg/l metformin in the drinking water.”
# as §1, with “Proteins were resolved on 8 or 10% SDS gels and blotted onto PVDF-membranes (Roche).” left out, “Statistical analyses were performed using SigmaStat software package (v 3.0, SPSS, USA). For timecourse or dose-response studies, data were analyses by one-way ANOVA with post hoc Dunnett's or Bonferonni test to accommodate for multiple comparisons. A Student's t-test was used for two-group comparisons, as appropriate.” left out
# AMPK [2] = assay: Phosphorylation of AMPK (pThr 172) in primary cortical neurons; assay type: cell-based, mouse
# Protocol: as §2
# as §3, with “treatment.” for “treatment. 3 groups of 2 mice were treated with or without 5 mg/l metformin in the drinking water.”
# as §1, with “Proteins were resolved on 8 or 10% SDS gels and blotted onto PVDF-membranes (Roche).” left out, “Statistical analyses were performed using SigmaStat software package (v 3.0, SPSS, USA). For timecourse or dose-response studies, data were analyses by one-way ANOVA with post hoc Dunnett's or Bonferonni test to accommodate for multiple comparisons. A Student's t-test was used for two-group comparisons, as appropriate.” left out
# MID1-α4-PP2Ac complex = target: T2, MID1-α4-PP2Ac complex (Homo sapiens, UniProt P67775+P78318); assay: Affinity chromatography of the PP2Ac-MID1 B-box-α4 complex; assay type: binding; conditions: metformin at different concentrations in the washing buffer
# T2 construct: made in house; host or cells: E. coli BL21
# T2 sequence (P67775 whole entry): as above
# T2 sequence (P78318 whole entry): as the sequence (P78318 whole entry) above
# Protocol: The MID1-B-box-domains, α4, or HIS-tagged PP2Ac were expressed in E. coli BL21. Cells were lysed by French press in buffer A (50 mM Na-phosphate, 300 mM NaCl, 20 mM imidazole, pH 8.0). Lysates were mixed and PP2A-protein complexes were immobilized on Ni-NTA columns (Qiagen) and washed extensively with buffer A containing 10% glycerol and 0.25% Tween20. After washing columns were eluted with buffer A containing different concentrations of metformin. Elutions were analyzed on SDS-Gels followed by Coomassie staining.
# GSK3β = assay: Phosphorylation of GSK3β (pSer9) in primary cortical neurons; assay type: cell-based, mouse; conditions: 2.5 mM metformin over increasing time intervals
# Protocol: as §2
# Cell pellets were homogenized in Magic-Mix (48% UREA, 15 mM Tris-HCL pH 7.5, 8.7% Glycerin, 1% SDS, 0.004% Bromphenolblue, 143 mM Mercaptoethanol), sonicated and boiled for 5 min at 95° C. Proteins were resolved on 8 or 10% SDS gels and blotted onto PVDF-membranes (Roche). […]
# [3] = 2 mg/ml in the drinking water fed to mice for 6 days; cited from earlier work
# p70S6kinase = assay: Phosphorylation of p70S6kinase in primary cortical neurons; assay type: cell-based, mouse; conditions: 2.5 mM metformin over increasing time intervals
# Protocol: as §2
# (§4) Cells were incubated with the respective substances as follows: Metformin (Sigma) at final concentrations up to 2.5 mM for 1 to >24 hours, okadaic acid (Sigma) at final concentrations from 1 nM to 10 nM for 4 h, Fostricien (Sigma) at final concentration of 1 μM for 4 h and AICAR (cell signalling) at final concentration of 5 mM for 0.5-16 h. For cell treatment without insulin, medium containing B27+insulin supplement was replaced with medium containing B27-supplement without insulin 24 h before treatment. 3 groups of 2 mice were treated with or without 5 mg/l metformin in the drinking water.
# as §1
# [4] = dosages applied to patients with Type II Diabetes; cited from earlier work
# [5] = target: T3, purified PP2Ac (catalytic subunit of PP2A) (Homo sapiens, UniProt P67775); assay: PP2A activity assay (malachite green), purified PP2Ac; assay type: biochemical; conditions: 10 mM metformin, 1 hour
# T3 construct: purchased upstate
# T3 sequence (P67775 whole entry): as the sequence (P67775 whole entry) above
# Protocol: (§5) Either purified PP2Ac (upstate), cell lysates or PP2A-holoenzymes, which were purified by immunoprecipitation using a PP2A-A-subunit antibody (Millipore), were incubated with or without 10 mM metformin or 10 nM okadaic acid for 1 hour. Afterwards PP2A phosphatase activity was determined using a malachite green assay kit (upstate) following the manufacturer's instructions.
# S6 = assay: Brain S6 phosphorylation in mice fed metformin in the drinking water; assay type: in vivo, mouse; conditions: 5 mg/ml in the drinking water for 16-24 days
# Protocol: as §3, with “treatment.” for “treatment. 3 groups of 2 mice were treated with or without 5 mg/l metformin in the drinking water.”
# (§6) Mice were decapitated and brains were rapidly dissected in nitrogen. […]
# as §1, with “Proteins were resolved on 8 or 10% SDS gels and blotted onto PVDF-membranes (Roche).” left out, “Statistical analyses were performed using SigmaStat software package (v 3.0, SPSS, USA). For timecourse or dose-response studies, data were analyses by one-way ANOVA with post hoc Dunnett's or Bonferonni test to accommodate for multiple comparisons. A Student's t-test was used for two-group comparisons, as appropriate.” left out
# PP2A-holoenzymes = assay: PP2A activity assay (malachite green), PP2A-holoenzymes immunopurified from HeLa cell lysates; assay type: biochemical; conditions: 10 mM metformin, 1 hour
# Protocol: as §5
# primary cortical neurons = assay: TUNEL assay on primary cortical neurons; assay type: cell-based, mouse; conditions: increasing concentrations of metformin, concentrations sufficient to induce tau dephosphorylation
# Protocol: Primary neurons were grown on coverslips with a density of 2×10^5 per 12 well. TUNEL assays were performed using TUNEL enzyme (Roche) and TUNEL label (Roche) following the manufacturer's instructions.
# tau [6] = assay type: cell-based, mouse
# Protocol: as §2, §4, §1
# human tau = assay: Tau phosphorylation by Western blot in primary cortical neurons of mice expressing human tau; assay type: cell-based; conditions: increasing concentration of metformin over 4 hours
# Protocol: as §2, §3
# tau [7] = assay: Brain tau phosphorylation in mice fed metformin in the drinking water; assay type: in vivo, mouse; conditions: 5 mg/ml in the drinking water for 16-24 days
# Protocol: as §3, with “treatment.” for “treatment. 3 groups of 2 mice were treated with or without 5 mg/l metformin in the drinking water.”
# Mice were decapitated and brains were rapidly dissected in nitrogen. Brains were homogenized in ice-cold lysis buffer containing 10 mmol/l Tris pH 7.5, 150 mM NaCl, 1 mM EDTA, 1 mM EGTA, 1% NP40, protease inhibitors(complete mini, Roche), phosphatase inhibitors (PhosStop, Roche). Lysates were sonicated and centrifuged at 25000 g for 10 min at 4° C.
# as §1
# AMPK [8] = assay: Brain AMPK phosphorylation in mice fed metformin in the drinking water; assay type: in vivo, mouse; conditions: 5 mg/ml in the drinking water for 16-24 days
# Protocol: as §3, with “treatment.” for “treatment. 3 groups of 2 mice were treated with or without 5 mg/l metformin in the drinking water.”
# as §6
# as §1, with “Proteins were resolved on 8 or 10% SDS gels and blotted onto PVDF-membranes (Roche).” left out, “Statistical analyses were performed using SigmaStat software package (v 3.0, SPSS, USA). For timecourse or dose-response studies, data were analyses by one-way ANOVA with post hoc Dunnett's or Bonferonni test to accommodate for multiple comparisons. A Student's t-test was used for two-group comparisons, as appropriate.” left out
# PP2A = target: T4, PP2A (Mus musculus, UniProt P63330); assay: PP2A activity in lysates of metformin-treated primary neurons; assay type: cell-based; design: dose or concentration left out as unconfirmed
# T4 construct: treated primary neurons with metformin and analyzed PP2A activity in the cell lysates; endogenous in cells; host or cells: primary neurons
# T4 sequence (P63330 whole entry): as the sequence (P67775 whole entry) above, with V5L counted along it
# Protocol: Afterwards PP2A phosphatase activity was determined using a malachite green assay kit (upstate) following the manufacturer's instructions.
# [9] = 2.5 mM, different time intervals, observed after 2-4 hours
compound,measurement,setting,value
"CN(C)C(=N)N=C(N)N [metformin, Metformin]",ability to dephosphorylate S6,ribosomal protein S6,clearly apparent
same,amount of PP2Ac associated with α4,α4-PP2Ac association,dissociation of α4 from PP2Ac
same,S6 phosphorylation (S241/244),"[1]; 2.5 mM, within 4 h of exposure",significant dephosphorylation
same,S6 phosphorylation (S241/244),"[1]; increasing concentrations of metformin, 16 hours",dose dependent decrease
same,ACC phosphorylation (Ser79),ACC,neither metformin (FIG. 4a) nor phenformin (FIG. 12) had an effect
same,AMPK phosphorylation (pThr 172),AMPK [2]; 2.5 mM for 10 hours,does induce AMPK phosphorylation significantly
same,AMPK phosphorylation (pThr 172),"AMPK [2]; 2.5 mM, shorter intervals of incubation than 10 hours",no significant effect
same,AMPK phosphorylation (pThr 172),AMPK [2]; smaller amounts than 2.5 mM for 24 hours,no significant effect
same,elution of MID1 B-boxes and α4 from immobilized HIS-tagged PP2Ac,MID1-α4-PP2Ac complex,could be eluted from the column by adding metformin
same,phosphorylation of GSK3β at position Ser 9 (de-phosphorylation activates the enzyme),GSK3β,reduces the phosphorylation
same,phosphorylation of GSK3β at position Ser 9 (de-phosphorylation activates the enzyme),GSK3β; listed as Metformin,increases the activity of GSK3β
same,level of metformin in the brain,[3],1000 nM
same,phosphorylation status of p70S6kinase,p70S6kinase,Results were confirmed
same,phosphorylation status of p70S6kinase,p70S6kinase; listed as Metformin,decrease of pS6kinase phosphorylation
same,peak plasma concentrations,[4],around 12 μM
same,PP2A activity of purified PP2Ac,[5],no influence
same,brain S6 phosphorylation,S6,significantly de-phosphorylated
same,activity of the immunopurified PP2A protein complex,PP2A-holoenzymes,significantly increased
same,"programmed cell death (percentage of apoptotic cells, TUNEL)",primary cortical neurons,did not cause a significant increase
same,effect on Ser202 phosphorylation of okadaic acid treated cells,"tau [6]; 10 nM okadaic acid prior to 2.5 mM metformin, 4 hours",no effect
same,phosphorylation of Ser202,"tau [6]; 100 nM, longer treatment (>24 hours)",decreased slightly
same,effect on Ser202 phosphorylation of fostriecin pre-treated cells,"tau [6]; 1 μM fostriecin prior to 2.5 mM metformin, 4 hours",did not have any effect
same,phosphorylation of Ser202,"tau [6]; 10 μM, longer treatment (>24 hours)",significantly reduced
same,phosphorylation of Ser202,tau [6]; 2.5 mM metformin alone over 4 hours,decreased significantly
same,"de-phosphorylation of PP2A dependent tau epitopes, dependence on time and dosage","tau [6]; 2.5 mM over time (Ser202, Ser262, Ser356), increasing concentration over 4 hours (Ser202)",increased with time (FIG. 2a) and dosage
same,phosphorylation of PP2A dependent tau epitope Ser202,tau [6]; [9],significant decrease
same,phosphorylation of PP2A dependent tau epitope Ser262,tau [6]; [9],significant decrease
same,phosphorylation of PP2A dependent tau epitope Ser356,tau [6]; [9],significant decrease
same,phosphorylation of the PP2A insensitive epitope Ser396,"tau [6]; 2.5 mM, increasing time intervals",did not change
same,dephosphorylation of tau (Ser 202),"tau [6]; 2.5 mM, medium without insulin",strong dephosphorylation effect
same,phosphorylation of human tau at Ser 202,human tau,reacted in the same way
same,brain de-phosphorylated form of tau at position Ser 202 (tau-1 antibody),tau [7],increase
same,brain tau Ser202 phosphorylation,tau [7],significant decrease
same,brain tau Ser262 phosphorylation,tau [7],significant decrease
same,brain tau Ser 396 phosphorylation (PP2A independent epitope),tau [7],no effect
same,brain AMPK phosphorylation (pThr 172),AMPK [8],no induction
same,phosphatase (PP2A) activity in cell lysates,PP2A,significantly increased phosphatase activity
